Measurements reported in the NIST ThermoML archive (doi:10.1021/je101146f).

Legend:
[1] = Ring tensiometer
[2] = xn = mol fraction of the nth substance listed; settings: Ring tensiometer

CCn1cc[n+](C)c1.O=S(=O)([N-]S(=O)(=O)C(F)(F)F)C(F)(F)F
[1]
Settings | surface tension liquid-gas [mN/m]
293.15 K | 36.14
298.15 K | 35.9
303.13 K | 35.56
308.15 K | 35.35
313.15 K | 35.1

C1CCOC1 [tetrahydrofuran] + CCn1cc[n+](C)c1.O=S(=O)([N-]S(=O)(=O)C(F)(F)F)C(F)(F)F
[2], x2 = 0
Settings | surface tension liquid-gas [mN/m]
293.15 K | 27.31
298.15 K | 26.68
303.13 K | 26.04
308.15 K | 25.38

CCn1cc[n+](C)c1.O=S(=O)([N-]S(=O)(=O)C(F)(F)F)C(F)(F)F + C1CCOC1
surface tension liquid-gas [mN/m], [2]
Settings | x1 = 0.1037 | x1 = 0.2024 | x1 = 0.3255 | x1 = 0.3841 | x1 = 0.4425 | x1 = 0.5469 | x1 = 0.6863 | x1 = 0.7697 | x1 = 0.9177 | x1 = 1
293.15 K | 28.72 | 29.94 | 31.05 | 31.62 | 32.12 | 32.98 | 34.07 | 34.55 | 35.65 | 36.14
298.15 K | 28.1 | 29.42 | 30.62 | 31.18 | 31.76 | 32.63 | 33.81 | 34.38 | 35.46 | 35.9
303.13 K | 27.52 | 28.84 | 30.18 | 30.82 | 31.41 | 32.39 | 33.52 | 34.15 | 35.22 | 35.56
308.15 K | 26.88 | 28.33 | 29.84 | 30.52 | 31.07 | 32.08 | 33.26 | 33.92 | 34.98 | 35.35

CC#N [acetonitrile] + CCn1cc[n+](C)c1.O=S(=O)([N-]S(=O)(=O)C(F)(F)F)C(F)(F)F
[2], x2 = 0
Settings | surface tension liquid-gas [mN/m]
293.15 K | 28.95
298.15 K | 28.37
303.13 K | 27.66
308.15 K | 27.03
313.15 K | 26.43

CCn1cc[n+](C)c1.O=S(=O)([N-]S(=O)(=O)C(F)(F)F)C(F)(F)F + CC#N
surface tension liquid-gas [mN/m], [2]
Settings | x1 = 0.0533 | x1 = 0.1886 | x1 = 0.337 | x1 = 0.4724 | x1 = 0.652 | x1 = 0.8245 | x1 = 0.924 | x1 = 1
293.15 K | 30.48 | 32.72 | 34.02 | 34.77 | 35.38 | 35.83 | 35.98 | 36.14
298.15 K | 29.8 | 32.1 | 33.55 | 34.42 | 35.11 | 35.6 | 35.76 | 35.9
303.13 K | 29.26 | 31.63 | 33.15 | 33.99 | 34.8 | 35.29 | 35.5 | 35.56
308.15 K | 28.65 | 31.16 | 32.78 | 33.61 | 34.49 | 34.99 | 35.22 | 35.35
313.15 K | 28.04 | 30.69 | 32.36 | 33.28 | 34.2 | 34.75 | 35 | 35.1

C1CCOC1 [tetrahydrofuran]
[1]
Settings | surface tension liquid-gas [mN/m]
293.15 K | 27.31
298.15 K | 26.68
303.13 K | 26.04
308.15 K | 25.38

CC#N [acetonitrile]
[1]
Settings | surface tension liquid-gas [mN/m]
293.15 K | 28.95
298.15 K | 28.37
303.13 K | 27.66
308.15 K | 27.03
313.15 K | 26.43
